Measurements as given in US7235379B2, “Method and medium for the detection/identification of microorgranisms with esterase activity” (Bio Merieux, priority 2000, dated 2007).
Several values for one entry are separate records, joined by “and”; a condition that tells them apart may be missing. Equal values may be shown once. Where a name gives a salt, the structure may show the parent alone. Read-outs that look alike come from different tables or passages of the source.

What was measured:
[1] = system: Salmonella enteritidis 002; experiment: Ex.1 colony coloration, 5-bromo-3-indolyl nonanoate, DMSO/Tween 20, MacConkey; type: cell-based
Salmonella spp. 017 [2] = system: Salmonella spp. 017
Description: The esterase substrate tested is 5-bromo-3-indolyl nonanoate. A 40 g/l stock solution of substrate is prepared in a mixture of 40% dimethyl sulfoxide and 60% Tween 20. A sufficient volume is added to a supercooled MacConkey medium (without neutral red) to give a substrate concentration of 500 mg/l.
Microorganisms originating from the Applicant's collection were inoculated onto this medium from a 0.5 McFarland suspension by isolation in three quadrants. The dishes were incubated at 37° C. for 48 hours. The colonies formed were examined visually after 24 and 48 hours of incubation. The coloration of these colonies and the intensity of this coloration were noted.
Note: In the above Examples, the numbers following the strains correspond to the number of each strain referenced in the Applicant's collection. The intensity of coloration corresponds to an arbitrary scale defined as follows: […]

Salmonella arizonae 018 [3] = experiment: Ex.1 colony coloration, 5-bromo-3-indolyl nonanoate, DMSO/Tween 20, MacConkey; type: cell-based
[4] = system: Salmonella typhimurium 010; experiment: Ex.2 colony coloration, 5-bromo-3-indolyl nonanoate, methanol/bile salts, MacConkey; type: cell-based; on intensity of coloration: key: 0: no activity; 0.1: trace of coloration; 0.5: very pale coloration; 1: distinct coloration of low intensity; 2: clear coloration of medium intensity; 3: intense coloration; 4: very intense coloration
Description: (§1) The esterase substrate tested is 5-bromo-3-indolyl nonanoate. A 25 g/l stock solution of substrate is prepared in methanol to which 5 g/l of bile salts have been added. A sufficient volume is added to a supercooled MacConkey medium (without neutral red) to give a substrate concentration of 500 mg/l.

[5] = system: Salmonella enteritidis 002; experiment: as above; type: cell-based
Description: as §1

[6] = system: Pseudomonas aeruginosa 165; experiment: as above; type: cell-based
Description: as §1

[7] = system: Listeria monocytogenes 079; experiment: Ex.3 colony coloration, 5-bromo-4-chloro-3-indolyl nonanoate 250 mg/l, DMSO/Tween 20; type: cell-based; further: key: 0: no activity; 0.1: trace of coloration; 0.5: very pale coloration; 1: distinct coloration of low intensity; 2: clear coloration of medium intensity; 3: intense coloration; 4: very intense coloration
Description: (§2) The esterase substrate tested is 5-bromo-4-chloro-3-indolyl nonanoate. A 40 g/l stock solution of substrate is prepared in a mixture of 40% dimethyl sulfoxide and 60% Tween 20. A sufficient volume is added to a supercooled MacConkey medium (without neutral red) to give a substrate concentration of 250 mg/l.

Candida albicans 033 = experiment: as above; type: cell-based
Description: as §2

Salmonella spp. 017 [8] = experiment: Ex.4 colony coloration, 5-bromo-3-indolyl nonanoate, DMSO/Tween 20, MacConkey; type: cell-based; conditions: 8 ml/l Tergitol 4
[9] = system: Salmonella enteritidis 006; experiment: as above; type: cell-based; conditions: 8 ml/l Tergitol 4
Salmonella typhi 118 = type: cell-based
Salmonella arizonae 018 [10] = experiment: Ex.4 colony coloration, 5-bromo-3-indolyl nonanoate, DMSO/Tween 20, MacConkey; type: cell-based; conditions: 8 ml/l Tergitol 4; on intensity of coloration: key: 0: no activity; 0.1: trace of coloration; 0.5: very pale coloration; 1: distinct coloration of low intensity; 2: clear coloration of medium intensity; 3: intense coloration; 4: very intense coloration
Escherichia coli 002 = experiment: as above; type: cell-based; parameters: key: —: absence of colour or intensity; conditions: 8 ml/l Tergitol 4

## CCCCC(CC)CCC(CC(C)C)OS(=O)(=O)O (stereo not drawn) [Tergitol 4, 7-ethyl-2-methyl-4-undecanoate hydrogensulfate or its sodium salt]
[1]; 2 ml/l, 24 h
  color: gray
  intensity of coloration: 2
[1]; 2 ml/l, 48 h
  color: gray
  intensity of coloration: 2
[1]; 4 ml/l, 24 h
  color: gray
  intensity of coloration: 3
[1]; 4 ml/l, 48 h
  color: gray
  intensity of coloration: 3
[1]; 8 ml/l, 24 h
  color: gray
  intensity of coloration: 3.5
[1]; 8 ml/l, 48 h
  color: gray
  intensity of coloration: 3.5
[1]; 16 ml/l, 24 h
  color: gray
  intensity of coloration: 3.5
[1]; 16 ml/l, 48 h
  color: gray
  intensity of coloration: 3.5
Salmonella spp. 017 [2]; 2 ml/l, 24 h
  color: gray
  intensity of coloration: 1
Salmonella spp. 017 [2]; 2 ml/l, 48 h
  color: gray
  intensity of coloration: 3
Salmonella spp. 017 [2]; 4 ml/l, 24 h
  color: gray
  intensity of coloration: 1.5
Salmonella spp. 017 [2]; 4 ml/l, 48 h
  color: gray
  intensity of coloration: 3.5
Salmonella spp. 017 [2]; 8 ml/l, 24 h
  color: gray
  intensity of coloration: 2
Salmonella spp. 017 [2]; 8 ml/l, 48 h
  color: gray
  intensity of coloration: 3
Salmonella spp. 017 [2]; 16 ml/l, 24 h
  color: gray
  intensity of coloration: 1
Salmonella spp. 017 [2]; 16 ml/l, 48 h
  color: gray
  intensity of coloration: 2
Salmonella arizonae 018 [3]; 2 ml/l, 24 h
  color: gray
  intensity of coloration: 2
Salmonella arizonae 018 [3]; 2 ml/l, 48 h
  color: gray
  intensity of coloration: 2.5
Salmonella arizonae 018 [3]; 4 ml/l, 24 h
  color: gray
  intensity of coloration: 3.5
Salmonella arizonae 018 [3]; 4 ml/l, 48 h
  color: gray
  intensity of coloration: 3.5
Salmonella arizonae 018 [3]; 8 ml/l, 24 h
  color: gray
  intensity of coloration: 3.5
Salmonella arizonae 018 [3]; 8 ml/l, 48 h
  color: gray
  intensity of coloration: 3.5
Salmonella arizonae 018 [3]; 16 ml/l, 24 h
  color: gray
  intensity of coloration: 3.5
Salmonella arizonae 018 [3]; 16 ml/l, 48 h
  color: gray
  intensity of coloration: 4
[4]; 2 ml/l, 24 h
  color: gray
  intensity of coloration: 2
[4]; 2 ml/l, 48 h
  color: gray
  intensity of coloration: 2
[4]; 4 ml/l, 24 h
  color: gray
  intensity of coloration: 2
[4]; 4 ml/l, 48 h
  color: gray
  intensity of coloration: 3
[4]; 8 ml/l, 24 h
  color: gray
  intensity of coloration: 3
[4]; 8 ml/l, 48 h
  color: gray
  intensity of coloration: 3
[4]; 16 ml/l, 24 h
  color: gray
  intensity of coloration: 3
[4]; 16 ml/l, 48 h
  color: gray
  intensity of coloration: 3.5
[5]; 2 ml/l, 24 h
  color: gray
  intensity of coloration: 2
[5]; 2 ml/l, 48 h
  color: gray
  intensity of coloration: 3
[5]; 4 ml/l, 24 h
  color: gray
  intensity of coloration: 3
[5]; 4 ml/l, 48 h
  color: gray
  intensity of coloration: 3
[5]; 8 ml/l, 24 h
  color: gray
  intensity of coloration: 0.5
[5]; 8 ml/l, 48 h
  color: gray
  intensity of coloration: 2
[5]; 16 ml/l, 24 h
  color: gray
  intensity of coloration: 0.1
[5]; 16 ml/l, 48 h
  color: gray
  intensity of coloration: 1
[6]; 2 ml/l, 24 h
  color: gray
  intensity of coloration: 3.5
[6]; 2 ml/l, 48 h
  color: gray
  intensity of coloration: 3.5
[6]; 4 ml/l, 24 h
  color: gray
  intensity of coloration: 4
[6]; 4 ml/l, 48 h
  color: gray
  intensity of coloration: 4
[6]; 8 ml/l, 24 h
  color: gray
  intensity of coloration: 4
[6]; 8 ml/l, 48 h
  color: gray
  intensity of coloration: 4
[6]; 16 ml/l, 24 h
  color: gray
  intensity of coloration: 4
[6]; 16 ml/l, 48 h
  color: gray
  intensity of coloration: 4
[7]; 0.001 ml/l, 24 h
  intensity of coloration: 2
[7]; 0.001 ml/l, 48 h
  intensity of coloration: 3
[7]; 0.01 ml/l, 24 h
  intensity of coloration: 3
[7]; 0.01 ml/l, 48 h
  intensity of coloration: 3
[7]; 0.1 ml/l, 24 h
  intensity of coloration: 2
[7]; 0.1 ml/l, 48 h
  intensity of coloration: 3
[7]; 1 ml/l (1st col), 24 h
  intensity of coloration: 2
[7]; 1 ml/l (1st col), 48 h
  intensity of coloration: 3
[7]; 1 ml/l (2nd col), 24 h
  intensity of coloration: 2
[7]; 1 ml/l (2nd col), 48 h
  intensity of coloration: 3
Candida albicans 033; 0.001 ml/l, 24 h
  intensity of coloration: 0.5
Candida albicans 033; 0.001 ml/l, 48 h
  intensity of coloration: 3
Candida albicans 033; 0.01 ml/l, 24 h
  intensity of coloration: 0.5
Candida albicans 033; 0.01 ml/l, 48 h
  intensity of coloration: 3
Candida albicans 033; 0.1 ml/l, 24 h
  intensity of coloration: 0.5
Candida albicans 033; 0.1 ml/l, 48 h
  intensity of coloration: 3
Candida albicans 033; 1 ml/l (1st col), 24 h
  intensity of coloration: 0.5
Candida albicans 033; 1 ml/l (1st col), 48 h
  intensity of coloration: 3
Candida albicans 033; 1 ml/l (2nd col), 24 h
  intensity of coloration: 0.5
Candida albicans 033; 1 ml/l (2nd col), 48 h
  intensity of coloration: 3
Salmonella spp. 017 [8]; 24 h
  color: gray
  intensity of coloration: 2.5
Salmonella spp. 017 [8]; 48 h
  color: gray
  intensity of coloration: 3.5
[9]; 24 h
  color: gray
  intensity of coloration: 3
[9]; 48 h
  color: gray
  intensity of coloration: 3
Salmonella typhi 118
  color: gray
Salmonella typhi 118; sodium salt
  intensity of coloration: 3 and 3.5
Salmonella arizonae 018 [10]; 24 h
  color: gray
  intensity of coloration: 3.5
Salmonella arizonae 018 [10]; 48 h
  color: gray
  intensity of coloration: 3.5
Escherichia coli 002; 24 h
  color: —
Escherichia coli 002; 48 h
  color: —
